The record followed here is US20230382923A1, “FUSED TETRACYCLIC QUINAZOLINE DERIVATIVES AS INHIBITORS OF ERBB2” (EnLiven Therapeutics, Inc., priority 2021, published 2023).

SMILES strings stand for the structures.

In test [1] the target is phosphorylated ERBB2 (pERBB2) (Homo sapiens (Human), UniProt P04626). The test is described as follows: Detection of phosphorylated ERBB2 (pERBB2) by ELISA in BT-474 cells. In kind it is cell-based. Particulars: four hours incubation with compound. As for the experimental part: BT-474 cells were seeded into a 96-well at 2.0*10^4cells/100 μl/well. Compounds were dissolved and serially diluted in DMSO. The compounds were then were added, mixed, and incubated for four hours at 37° C., 5% CO2. […] Following the four hour incubation with compounds, cell lysates were prepared. Plates were centrifuged for 5 min at 3000 RPM, and supernatant was removed from each well. Cells were washed 3 times by resuspension in 150 μl PBS, followed by centrifugation and removal of the supernatant, as above. 100 μl of cell lysis buffer (Boston BioProducts, cat #BP-115D) supplied with 1×complete ULTRA cocktail inhibitor (Thermo ScientificTM, cat #78443) was then added to the washed cells. Cells were incubated with lysis buffer for 1 hour at 4° C., and then stored at -80° C. Enzyme-linked immunosorbent assays (ELISA) were performed to measure phosphorylated ERBB2 levels. […] The next day, plates were washed with PBS+0.05% Tween20 (PBST). 150 μl of 5% BSA blocking solution was added for 1 hour at room temperature, with shaking. Plates were washed with PBST. Cell lysates were thawed and 100 μl of lysate was added to the ELISA plate. The plates were incubated for 2 hours at room temperature, with shaking. ELISA plates were then washed with PBST and 100 μl of an HRP-labeled detection antibody that binds phosphorylated tyrosine (R&D Systems, cat #841913) was added to each well. Plates were incubated for 1 hour at room temperature, with shaking. Plates were then washed with PBST, and 100 μl TMB substrate solution (R&D Systems, cat #DY999) was added. Plate were incubated in the dark for 20 minutes at room temperature. 50 μl of Stop solution (R&D Systems, cat #DY994) (50 μl) was added to each well and mixed. […] The remaining kinase activity by calculated using the following formula: % Relative activity=100×([…]). The low and high control values (“LC” and “HC”) were generated from lysate from wells without cells or with cells treated with 0.1% DMSO, respectively.
phosphorylated ERBB2 (pERBB2), sequence (P04626 23-1255): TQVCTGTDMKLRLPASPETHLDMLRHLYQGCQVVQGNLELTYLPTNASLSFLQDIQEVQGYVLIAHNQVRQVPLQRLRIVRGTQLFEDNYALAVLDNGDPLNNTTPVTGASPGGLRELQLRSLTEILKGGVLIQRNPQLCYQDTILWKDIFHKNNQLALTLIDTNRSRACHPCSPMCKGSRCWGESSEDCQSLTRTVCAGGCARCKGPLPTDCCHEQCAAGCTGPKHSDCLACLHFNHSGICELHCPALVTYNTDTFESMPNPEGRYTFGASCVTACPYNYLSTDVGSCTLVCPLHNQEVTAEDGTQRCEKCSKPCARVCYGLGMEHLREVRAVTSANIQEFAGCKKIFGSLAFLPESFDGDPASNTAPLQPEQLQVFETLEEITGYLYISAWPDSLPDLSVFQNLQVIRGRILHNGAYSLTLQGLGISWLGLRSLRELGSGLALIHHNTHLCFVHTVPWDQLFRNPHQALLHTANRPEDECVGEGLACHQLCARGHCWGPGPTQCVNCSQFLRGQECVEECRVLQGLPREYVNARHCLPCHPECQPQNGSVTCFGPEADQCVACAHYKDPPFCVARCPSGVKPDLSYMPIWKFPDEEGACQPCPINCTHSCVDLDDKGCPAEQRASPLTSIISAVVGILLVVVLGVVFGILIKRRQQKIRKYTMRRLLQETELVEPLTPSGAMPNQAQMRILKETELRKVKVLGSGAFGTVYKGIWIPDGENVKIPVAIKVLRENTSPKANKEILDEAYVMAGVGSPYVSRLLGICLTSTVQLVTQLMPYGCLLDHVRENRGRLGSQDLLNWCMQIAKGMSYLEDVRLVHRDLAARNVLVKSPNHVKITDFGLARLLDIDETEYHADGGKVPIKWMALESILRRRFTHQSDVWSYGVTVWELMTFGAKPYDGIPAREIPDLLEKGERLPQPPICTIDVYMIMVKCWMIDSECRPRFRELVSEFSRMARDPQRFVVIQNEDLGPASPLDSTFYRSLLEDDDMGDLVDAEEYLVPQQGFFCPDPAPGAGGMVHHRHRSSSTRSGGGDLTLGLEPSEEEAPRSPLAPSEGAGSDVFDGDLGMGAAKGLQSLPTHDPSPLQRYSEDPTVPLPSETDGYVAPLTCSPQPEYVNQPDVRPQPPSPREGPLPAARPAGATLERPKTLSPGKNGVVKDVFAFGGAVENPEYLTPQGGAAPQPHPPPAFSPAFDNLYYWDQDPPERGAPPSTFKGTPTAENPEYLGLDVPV
(ELISA stands for enzyme-linked immunosorbent assay.)

For test [2], the target named is phosphorylated EGFR (pEGFR) (Homo sapiens (Human), UniProt P00533). The test is described as follows: Detection of phosphorylated EGFR (pEGFR) by AlphaLISA in A431 cells. It counts as cell-based. Particulars: A431 cells (10% FBS), 4 hours incubation, EGF 30 ng/mL for 10 minutes. As to the method: […] were performed to measure phosphorylated EGFR levels using A431 cells (10% FBS). A431 (1.0*10^4cells/40 μl/well) cells were seeded in 384 well. Compounds were dissolved in DMSO, serially diluted in DMSO and then were added, mixed, and incubated for 4 hours at 37° C., […]. Following the 4-hours incubation, cells were stimulated for 10 minutes with EGF (Invitrogen, cat #PHG0311) at a final concentration of 30 ng/mL in the incubator. The media was aspirated and cells were lysed in 10 μL lysis buffer with protease and phosphatase inhibitors (PerkinElmer, cat #ALSU-PEGFR-A50K). The plates were placed on a shaker for 5 minutes and then incubated for 30 min at 4° C. for complete lysis. The lysate was transferred to an Optiplate (Perkin Elmer, cat #6007290).
phosphorylated EGFR (pEGFR), sequence (P00533 25-1210): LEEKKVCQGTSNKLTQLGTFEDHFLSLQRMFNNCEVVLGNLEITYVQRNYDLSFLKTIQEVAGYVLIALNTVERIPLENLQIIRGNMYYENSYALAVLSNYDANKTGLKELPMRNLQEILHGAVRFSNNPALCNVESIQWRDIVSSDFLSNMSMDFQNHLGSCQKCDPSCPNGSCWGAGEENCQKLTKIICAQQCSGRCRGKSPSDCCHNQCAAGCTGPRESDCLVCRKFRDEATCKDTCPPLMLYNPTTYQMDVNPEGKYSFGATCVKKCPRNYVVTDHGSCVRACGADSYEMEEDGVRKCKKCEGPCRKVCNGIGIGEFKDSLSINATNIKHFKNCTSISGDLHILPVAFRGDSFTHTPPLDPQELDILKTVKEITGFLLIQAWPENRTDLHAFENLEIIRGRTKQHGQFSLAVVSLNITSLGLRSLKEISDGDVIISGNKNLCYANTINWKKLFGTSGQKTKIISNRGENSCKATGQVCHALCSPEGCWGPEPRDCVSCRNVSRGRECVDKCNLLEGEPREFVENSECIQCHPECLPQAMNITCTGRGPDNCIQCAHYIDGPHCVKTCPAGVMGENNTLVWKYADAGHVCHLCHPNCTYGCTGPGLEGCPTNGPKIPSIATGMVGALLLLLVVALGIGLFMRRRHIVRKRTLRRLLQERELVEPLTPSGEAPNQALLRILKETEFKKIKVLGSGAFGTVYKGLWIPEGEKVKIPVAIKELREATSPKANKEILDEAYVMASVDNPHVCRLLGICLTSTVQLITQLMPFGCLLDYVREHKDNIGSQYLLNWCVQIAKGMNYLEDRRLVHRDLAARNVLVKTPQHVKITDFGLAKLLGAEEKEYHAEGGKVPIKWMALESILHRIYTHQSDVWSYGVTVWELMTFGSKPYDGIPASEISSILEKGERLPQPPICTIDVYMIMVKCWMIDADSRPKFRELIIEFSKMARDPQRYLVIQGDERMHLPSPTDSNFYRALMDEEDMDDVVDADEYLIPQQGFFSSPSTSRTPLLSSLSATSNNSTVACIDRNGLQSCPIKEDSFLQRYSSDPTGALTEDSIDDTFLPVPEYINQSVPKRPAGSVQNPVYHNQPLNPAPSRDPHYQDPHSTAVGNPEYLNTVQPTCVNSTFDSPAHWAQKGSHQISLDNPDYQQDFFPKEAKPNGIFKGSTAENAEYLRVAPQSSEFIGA
Acceptor mix (PerkinElmer, cat #ALSU-PEGFR-A50K) was prepared just before use and 5 μL was dispensed to all the wells, followed by a 1.5-2 h incubation at room temperature in dark. The donor mix (PerkinElmer, cat #ALSU-PEGFR-A50K) was prepared under low light conditions prior to use and 5 μl of donor mix was added to all the wells under subdued lighting or green filters. The plates were placed on a shaker for 5 min, sealed, and incubated overnight at room temperature in dark. Plates were read on the Envision (PerkinElmer) using standard AlphaLISA settings.
The percentage of inhibition on EGFR phosphorylation was calculated following equation: % Inhibition=100×(LumHC−LumSample)/(LumHC−LumLC). The low and high controls (LC/HC) are generated from lysate from wells with cells treated with DMSO or […] Staurosporine (BioAustralis, cat #BIA-S1086), […]. IC50 values were calculated by fitting the Curve using XLfit (v5.3.1.3), equation 201: Y=Bottom+(Top−Bottom)/(1+10^((LogIC50−X)*HillSlope)).

The IC50 is the concentration at which inhibition is half-maximal. On to `CC#CC(=O)N1CCN2CC1COc1cc3ncnc(Nc4ccc(Oc5ccc6c(c5)ncn6C)c(C)c4)c3cc12` (stereo in doubt) [Compound 11, 1-((10S)-4-((3-methyl-4-((1-methyl-1H-benzo[d]imidazol-5-yl)oxy)phenyl)amino)-7,8,10,11-tetrahydro-9H-6,10-methano[1,4,7]oxadiazonino[3,2-g]quinazolin-9-yl)but-2-yn-1-one], for which the IC50 was 103 nM in test [1] and > 10000 nM in test [2].

As for `CC#CC(=O)N1CCN2CC1COc1cc3ncnc(Nc4ccc(Oc5ccc6c(c5)ncn6C)c(C)c4)c3nc12` (stereo in doubt) [Compound 16, 1-((10S)-4-((3-methyl-4-((1-methyl-1H-benzo[d]imidazol-5-yl)oxy)phenyl)amino)-7,8,10,11-tetrahydro-9H-6,10-methanopyrimido[4′,5′:5,6]pyrido[3,2-b][1,4,7]oxadiazonin-9-yl)but-2-yn-1-one], the IC50 in test [1] was 242 nM; in test [2], > 10000 nM.

For `Cc1cc(Nc2ncnc3cc4c(cc23)N2CCN(C(=O)/C=C/CN(C)C)C(CO4)C2)ccc1Oc1ccc2c(c1)ncn2C` (stereo in doubt) [Compound 7, (E)-4-(dimethylamino)-1-((10S)-4-((3-methyl-4-((1-methyl-1H-benzo[d]imidazol-5-yl)oxy)phenyl)amino)-7,8,10,11-tetrahydro-9H-6,10-methano[1,4,7]oxadiazonino[3,2-g]quinazolin-9-yl)but-2-en-1-one], the IC50 in test [1] was 41.3 nM; in test [2] it was > 10000 nM.

In the case of `Cc1cc(Nc2ncnc3cc4c(nc23)N2CCN(C(=O)/C=C/[C@@H]3CCCN3C)C(CO4)C2)ccc1Oc1ccn2ncnc2c1` (stereo in doubt) [Compound 28, (E)-1-((10S)-4-((4-([1,2,4]triazolo[1,5-a]pyridin-7-yloxy)-3-methylphenyl)amino)-7,8,10,11-tetrahydro-9H-6,10-methanopyrimido[4′,5′:5,6]pyrido[3,2-b][1,4,7]oxadiazonin-9-yl)-3-((S)-1-methylpyrrolidin-2-yl)prop-2-en-1-one], the IC50 in test [1] was found to be 10.8 nM; in test [2], 8770 nM.

As to `Cc1cc(Nc2ncnc3cc4c(nc23)N2CCN(C(=O)/C=C/[C@H](C)N(C)C)C(CO4)C2)c(F)cc1Oc1ccn2ncnc2c1` (stereo in doubt) [Compound 47, (4S,E)-1-((10S)-4-((4-([1,2,4]triazolo[1,5-a]pyridin-7-yloxy)-2-fluoro-5-methylphenyl)amino)-7,8,10,11-tetrahydro-9H-6,10-methanopyrimido[4′,5′:5,6]pyrido[3,2-b][1,4,7]oxadiazonin-9-yl)-4-(dimethylamino)pent-2-en-1-one], the IC50 in test [1] was 29.2 nM; in test [2], > 10000 nM.

As to `C=C(F)C(=O)N1CCN2CC1COc1cc3ncnc(Nc4ccc(Oc5ccn6ncnc6c5)c(C)c4)c3nc12` (stereo in doubt) [Compound 23, 1-((10S)-4-((4-([1,2,4]triazolo[1,5-a]pyridin-7-yloxy)-3-methylphenyl)amino)-7,8,10,11-tetrahydro-9H-6,10-methanopyrimido[4′,5′:5,6]pyrido[3,2-b][1,4,7]oxadiazonin-9-yl)-2-fluoroprop-2-en-1-one], the IC50 in test [1] was 209 nM; in test [2] it was > 10000 nM.

In the case of `CN(C)C/C=C/C(=O)N1CCN2CC1COc1cc3ncnc(Nc4ccc(Oc5ccn6ncnc6c5)c(F)c4)c3nc12` (stereo in doubt) [Compound 39, (E)-1-((10S)-4-((4-([1,2,4]triazolo[1,5-a]pyridin-7-yloxy)-3-fluorophenyl)amino)-7,8,10,11-tetrahydro-9H-6,10-methanopyrimido[4′,5′:5,6]pyrido[3,2-b][1,4,7]oxadiazonin-9-yl)-4-(dimethylamino)but-2-en-1-one], the IC50 in test [1] came to 8.92 nM; in test [2], 6170 nM.

As to `Cc1cc(Nc2ncnc3cc4c(nc23)N2CCN(C(=O)/C=C/[C@@H](C)N(C)C)C(CO4)C2)c(F)cc1Oc1ccn2ncnc2c1` (stereo in doubt) [Compound 50, (4R,E)-1-((10S)-4-((4-([1,2,4]triazolo[1,5-a]pyridin-7-yloxy)-2-fluoro-5-methylphenyl)amino)-7,8,10,11-tetrahydro-9H-6,10-methanopyrimido[4′,5′:5,6]pyrido[3,2-b][1,4,7]oxadiazonin-9-yl)-4-(dimethylamino)pent-2-en-1-one], the IC50 in test [1] is 72.4 nM; in test [2] it was > 10000 nM.

Consider `Cc1cc(Nc2ncnc3cc4c(nc23)N2CCN(C(=O)/C=C/CN(C)C)C(CO4)C2)c(F)cc1Oc1cncc(F)c1` (stereo in doubt) [Compound 44, (E)-4-(dimethylamino)-1-((10S)-4-((2-fluoro-4-((5-fluoropyridin-3-yl)oxy)-5-methylphenyl)amino)-7,8,10,11-tetrahydro-9H-6,10-methanopyrimido[4′,5′:5,6]pyrido[3,2-b][1,4,7]oxadiazonin-9-yl)but-2-en-1-one], for which the IC50 in test [1] turned out to be 36 nM; in test [2], 337 nM.

As for `Cc1cc(Nc2ncnc3cc4c(c(F)c23)N2CCN(C(=O)/C=C/CN(C)C)C(CO4)C2)ccc1Oc1ccn2ncnc2c1` (stereo in doubt) [Compound 40, (E)-1-((10S)-4-((4-([1,2,4]triazolo[1,5-a]pyridin-7-yloxy)-3-methylphenyl)amino)-5-fluoro-7,8,10,11-tetrahydro-9H-6,10-methano[1,4,7]oxadiazonino[3,2-g]quinazolin-9-yl)-4-(dimethylamino)but-2-en-1-one], the IC50 in test [1] was 18.5 nM; in test [2], > 10000 nM.

In the case of `CC#CC(=O)N1CCN2CC1COc1cc3ncnc(Nc4ccc(Oc5ccn6ncnc6c5)c(C)c4)c3cc12` (stereo in doubt) [Compound 12, 1-((10S)-4-((4-([1,2,4]triazolo[1,5-a]pyridin-7-yloxy)-3-methylphenyl)amino)-7,8,10,11-tetrahydro-9H-6,10-methano[1,4,7]oxadiazonino[3,2-g]quinazolin-9-yl)but-2-yn-1-one], the IC50 in test [1] stood at 42.8 nM; in test [2], 7060 nM.

As to `[2H]C([2H])([2H])N(C([2H])([2H])[2H])C([2H])([2H])/C=C/C(=O)N1CCN2CC1COc1cc3ncnc(Nc4cc(C)c(Oc5ccn6ncnc6c5)cc4F)c3nc12` (stereo in doubt) [Compound 59, (E)-1-((10S)-4-((4-([1,2,4]triazolo[1,5-a]pyridin-7-yloxy)-2-fluoro-5-methylphenyl)amino)-7,8,10,11-tetrahydro-9H-6,10-methanopyrimido[4′,5′:5,6]pyrido[3,2-b][1,4,7]oxadiazonin-9-yl)-4-(bis(methyl-d3)amino)but-2-en-1-one-4,4-d2], the values for the IC50 in test [1] and in test [2] were 9 nM and 1380 nM, respectively.

Regarding `Cc1cc(Nc2ncnc3ccc(NC4=NC(C)(C)CO4)cc23)ccc1Oc1ccn2ncnc2c1` [Tucatinib, tucatinib, reference compound], the IC50 in test [1] turned out to be 12 nM.

For `C=CC(=O)N1CCN2C[C@@H]1COc1cc3ncnc(Nc4ccc(Cc5ccn6ncnc6c5)c(C)c4)c3nc12` [Compound 19, 1-((10R)-4-((4-([1,2,4]triazolo[1,5-a]pyridin-7-ylmethyl)-3-methylphenyl)amino)-7,8,10,11-tetrahydro-9H-6,10-methanopyrimido[4′,5′:5,6]pyrido[3,2-b][1,4,7]oxadiazonin-9-yl)prop-2-en-1-one], in test [1], the IC50 was determined as 1930 nM.
